Experimental findings from ChEMBL document CHEMBL1781888, “Marianins A and B, prenylated phenylpropanoids from Mariannaea camptospora” (J Nat Prod, 2011) are described below.

Values after ≈ are worked out from the molar mass of the structure shown. Active and inactive are the calls of the source. The calls are words filed in the database; no cut-off is given here.

As a reminder, the IC50 is the concentration needed to halve the response being measured. The MIC is the lowest concentration that inhibits growth of the organism. A high value points to weaker potency.

Test [1] deals with MCF7. The test is described as follows: Cytotoxicity against human MCF7 cells after 48 hrs by MTT assay. To be noted: MCF7, 48 h. Format: functional, cell-based. In general terms: Tetrazolium dyes change colour on reduction, which living cells bring about.
Test [2] concerns Escherichia coli. The experiment in a line: Antibacterial activity against Escherichia coli NIH-JC2 at 30 microg/mL. Format: functional, organism-based.
The test system of test [3] is HeLa. The experiment in a line: Cytotoxicity against human HeLa cells after 48 hrs by MTT assay. Format: functional, cell-based.
For test [4], the system named is Micrococcus luteus. The test is described as follows: Antibacterial activity against Micrococcus luteus ATCC 9343. Format: functional.
Test [5] has as its system Candida albicans. The test is described as follows: Antifungal activity against Candida albicans IFO1594 at 30 microg/mL. Format: functional, organism-based.

Take `CC(C)=CCOc1cc(C)c2c(OCC=C(C)C)cc(=O)oc2c1` [MARIANIN A]: the IC50 was found to be 39 µM in test [1] and 34 µM in test [3]. Moreover, the inhibition entry in test [2] and in test [5] was “inactive” in each case. The molecule further registered an MIC in test [4] of 15 µg/mL (≈ 45.7 µM).
Regarding `C=CC(C)(C)CC(=O)c1c(C)cc(OCC=C(C)C)cc1O` [MARIANIN B], the IC50 in test [1] and in test [3] was > 100 µM in each case. The inhibition result in test [2] and in test [5] was “inactive” throughout. Moreover, inhibition of growth in test [4] (MIC) required 30 µg/mL (≈ 99.2 µM).
